From patent US20250144067A1, “PERSONALIZED STARVATION THERAPY FOR CANCER” (Faeth Therapeutics, Inc., priority 2021, published 2025)
Counter-ions that a name gives are not always drawn. Like-named read-outs stand apart in the source and are kept apart here.

What was measured:
[1] = system: NCI-H292 lung cancer cells; experiment: FDA drug screening, complete media vs cholesterol-free media without statin (TABLE 1); format: cell-based, human
[2] = system: NCI-H292 lung cancer cells; experiment: FDA drug screening, complete media vs cholesterol-free media with simvastatin (TABLE 2); format: cell-based, human
[3] = Complete minus Cholesterol-free, >0 enhanced anti-cancer activity, about 0 neutral, <0 antagonist
[4] = NCI-H292 cells, cholesterol-free media without statin, FDA drug library screen
[5] = NCI-H292 cells, complete media, FDA drug library screen
[6] = NCI-H292 cells, cholesterol-free media with simvastatin 0.04 μM, FDA drug library screen (TABLE 2)
[7] = NCI-H292 cells, complete media, FDA drug library screen (TABLE 2)
[8] = complete media minus cholesterol-free media + simvastatin (0.04 μM), >0 enhanced anti-cancer activity, about 0 neutral, <0 antagonist
[9] = NCI-H292 cells, cholesterol-free media without statin
[10] = complete vs cholesterol-free media, greater than 0 enhanced anti-cancer activity, about 0 neutral, below 0 antagonists
[11] = NCI-H292 cells, FDA drug library screen, cholesterol-free media with simvastatin 0.04 μM
[12] = NCI-H292 cells, FDA drug library screen, complete media
[13] = complete media vs cholesterol-free media + simvastatin (0.04 μM), >0 enhanced anti-cancer activity, about 0 neutral, <0 antagonist
[14] = Complete minus Cholesterol-free, greater than 0 enhanced anti-cancer activity, about 0 neutral, below 0 antagonist
[15] = NCI-H292 cells, FDA drug library screen, cholesterol-free media without statin
[16] = NCI-H292 cells, FDA library drug in cholesterol-free media with simvastatin 0.04 μM
[17] = NCI-H292 cells, FDA library drug in complete media
[18] = complete media minus cholesterol-free media + simvastatin, […]
[19] = complete vs cholesterol-free media, >0 enhanced anti-cancer activity, about 0 neutral, <0 antagonist
[20] = complete media minus cholesterol-free media + simvastatin, >0 enhanced anti-cancer activity, about 0 neutral, <0 antagonist
[21] = Complete minus Cholesterol-free, greater than 0 enhanced anti-cancer activity, about 0 neutral, below 0 antagonists
[22] = NCI-H292 cells in complete media
[23] = NCI-H292 cells, drug in cholesterol-free media with simvastatin 0.04 μM
[24] = NCI-H292 cells, drug in complete media
[25] = NCI-H292 cells in cholesterol-free media without statin
[26] = Complete minus Cholesterol-free, […]

SMILES: Nc1ccn([C@@H]2O[C@H](CO)[C@@H](O)C2(F)F)c(=O)n1 [Gemcitabine]
- Difference [1, 3]: −0.03
- Cholesterol-free [1, 4]: 0.04572
- Complete [1, 5]: 0.01326
- Cholesterol-free media + simvastatin (0.04 μM) [2, 6]: 0.08143
- Complete Media [2, 7]: 0.09095
- Difference [2, 8]: 0.01

SMILES: Cc1ccc(C)c(OCCCC(C)(C)C(=O)O)c1 [Gemfibrozil]
- Cholesterol-free [1, 9]: 1.369
- Complete ([1]; NCI-H292 cells, complete media): 0.9198
- Difference [1, 10]: −0.45
- Cholesterol-free media + simvastatin (0.04 μM) [2, 11]: 1.808
- Complete Media [2, 12]: 1.701
- Difference [2, 13]: −0.11

SMILES: C#C[C@]1(O)C=C[C@H]2[C@@H]3CCC4=CC(=O)CC[C@@H]4[C@H]3CC[C@@]21CC [Gestodene]
- Difference [1, 14]: −0.11
- Cholesterol-free [1, 15]: 1.134
- Complete [1, 12]: 1.023
- Cholesterol-free media + simvastatin (0.04 μM) [2, 16]: 1.543
- Complete Media [2, 17]: 1.003
- Difference [2, 13]: −0.54

SMILES: C#C[C@]1(O)CC[C@H]2[C@@H]3CCC4=CC(=O)CCC4=C3C=C[C@@]21CC [Gestrinone]
- Cholesterol-free [1, 4]: 0.8898
- Complete [1, 5]: 2.026
- Difference ([1]; complete vs cholesterol-free media, […]): 1.14
- Cholesterol-free media + simvastatin (0.04 μM) [2, 11]: 1.007
- Complete Media [2, 12]: 1.693
- Difference [2, 18]: 0.69

SMILES: CCc1nc(C(N)=O)c(Nc2ccc(N3CCC(N4CCN(C)CC4)CC3)c(OC)c2)nc1NC1CCOCC1 [Gilteritinib]
- Cholesterol-free [1, 4]: 0.2961
- Complete [1, 5]: 0.7497
- Difference [1, 19]: 0.45
- Cholesterol-free media + simvastatin (0.04 μM) [2, 6]: 0.4196
- Complete Media [2, 7]: 0.3685
- Difference [2, 8]: −0.05

SMILES: Oc1cc(O)c(Cl)cn1 [Gimeracil]
- Difference [1, 3]: 0.07
- Cholesterol-free [1, 4]: 0.8525
- Complete [1, 5]: 0.9232
- Cholesterol-free media + simvastatin (0.04 μM) [2, 16]: 2.327
- Complete Media [2, 17]: 1.491
- Difference [2, 13]: −0.84

SMILES: O=C(OCC(O)CO)c1ccccc1Nc1ccnc2cc(Cl)ccc12 (centres unmarked) [Glafenine (hydrochloride)]
- Cholesterol-free [1]: 1.367
- Complete [1]: 1.255
- Difference [1]: −0.11
- Cholesterol-free media + simvastatin (0.04 μM) [2]: 0.8957
- Complete Media [2]: 0.9245
- Difference [2]: 0.03

SMILES: O=C(OCC(O)CO)c1ccccc1Nc1ccnc2cc(Cl)ccc12 (centres unmarked) [Glafenine]
- Cholesterol-free [1]: 1.288
- Difference [1]: −0.12
- Cholesterol-free media + simvastatin (0.04 μM) [2]: 0.9477
- Complete Media [2]: 1.068
- Difference [2]: 0.12

SMILES: CN1CC[C@@H](NC(=O)Nc2ccc(C#N)cc2)C[C@@H]1c1nc2ccccc2[nH]1 [Glasdegib]
- Cholesterol-free [1, 9]: 1.398
- Complete ([1]; NCI-H292 cells, complete media): 0.9821
- Difference [1, 10]: −0.42
- Cholesterol-free media + simvastatin (0.04 μM) [2, 11]: 0.7992
- Complete Media [2, 12]: 0.9809
- Difference [2, 20]: 0.18

SMILES: CC(C)(C)[C@@H]1NC(=O)O[C@@H]2CCC[C@H]2OC/C=C/C(F)(F)c2nc3ccccc3nc2O[C@@H]2C[C@@H](C(=O)N[C@]3(C(=O)NS(=O)(=O)C4(C)CC4)C[C@H]3C(F)F)N(C2)C1=O [Glecaprevir]
- Difference [1, 3]: −0.04
- Cholesterol-free [1, 4]: 0.8867
- Complete [1, 5]: 0.8478
- Cholesterol-free media + simvastatin (0.04 μM) ([2]; NCI-H292 cells, cholesterol-free media with simvastatin 0.04 μM, cell growth value in FDA drug screen): 1.021
- Complete Media ([2]; NCI-H292 cells, complete media, cell growth value in FDA drug screen): 1.126
- Difference [2, 20]: 0.11

SMILES: COc1ccc(Cl)cc1C(=O)NCCc1ccc(S(=O)(=O)NC(=O)NC2CCCCC2)cc1 [Glibenclamide]
- Difference [1, 21]: −0.64
- Complete [1, 22]: 0.9798
- Cholesterol-free media + simvastatin (0.04 μM) [2, 11]: 1.112
- Complete Media [2, 12]: 0.9567
- Difference [2, 13]: −0.16

SMILES: Cc1ccc(S(=O)(=O)NC(=O)NN2CC3CCCC3C2)cc1 (centres unmarked) [Gliclazide]
- Difference [1, 3]: 0.04
- Cholesterol-free [1, 4]: 1.079
- Complete [1, 5]: 1.122
- Cholesterol-free media + simvastatin (0.04 μM) [2, 16]: 1.233
- Complete Media [2, 17]: 0.9583
- Difference [2, 13]: −0.28

SMILES: CCC1=C(C)CN(C(=O)NCCc2ccc(S(=O)(=O)NC(=O)N[C@H]3CC[C@H](C)CC3)cc2)C1=O [Glimepiride]
- Cholesterol-free [1, 9]: 1.246
- Complete ([1]; NCI-H292 cells, complete media): 0.8316
- Difference [1, 10]: −0.41
- Cholesterol-free media + simvastatin (0.04 μM) [2, 23]: 0.9904
- Complete Media [2, 24]: 0.7847
- Difference [2, 13]: −0.21

SMILES: Cc1cnc(C(=O)NCCc2ccc(S(=O)(=O)NC(=O)NC3CCCCC3)cc2)cn1 [Glipizide]
- Cholesterol-free [1, 9]: 1.844
- Complete ([1]; NCI-H292 cells, complete media): 1.46
- Difference [1, 10]: −0.38
- Cholesterol-free media + simvastatin (0.04 μM) [2, 23]: 1.42
- Complete Media [2, 24]: 1.2
- Difference [2, 13]: −0.22

SMILES: COc1ccc2c(c1)C(=O)N(CCc1ccc(S(=O)(=O)NC(=O)NC3CCCCC3)cc1)C(=O)C2(C)C [Gliquidone]
- Difference [1, 21]: −0.68
- Cholesterol-free [1, 25]: 1.724
- Complete [1, 22]: 1.039
- Cholesterol-free media + simvastatin (0.04 μM) [2, 16]: 1.335
- Complete Media [2, 17]: 1.002
- Difference [2, 13]: −0.33

SMILES: O=C([O-])[C@H](O)[C@@H](O)[C@H](O)[C@H](O)CO.[Na+] [Gluconate (sodium)]
- Difference [1, 26]: −0.62
- Cholesterol-free [1, 25]: 1.575
- Complete [1, 22]: 0.95
- Cholesterol-free media + simvastatin (0.04 μM) [2, 16]: 1.406
- Complete Media [2, 17]: 0.9873
- Difference ([2]; complete media vs cholesterol-free media + simvastatin (0.04 μM), […]): −0.42

SMILES: Cl.N[C@H]1C(O)O[C@H](CO)[C@@H](O)[C@@H]1O (some centres unmarked) [Glucosamine (hydrochloride)]
- Difference [1, 14]: −0.17
- Cholesterol-free [1, 15]: 1.116
- Complete [1, 12]: 0.9464
- Cholesterol-free media + simvastatin (0.04 μM) [2, 11]: 0.9525
- Complete Media [2, 12]: 1.178
- Difference [2, 20]: 0.23

SMILES: N[C@H]1C(O)O[C@H](CO)[C@@H](O)[C@@H]1O (some centres unmarked) [Glucosamine]
- Cholesterol-free [1, 9]: 1.17
- Complete ([1]; NCI-H292 cells, complete media): 0.7725
- Difference [1, 10]: −0.40
- Cholesterol-free media + simvastatin (0.04 μM) [2, 16]: 1.916
- Difference [2, 13]: −0.77

SMILES: O=C(CCCc1ccccc1)OCC(COC(=O)CCCc1ccccc1)OC(=O)CCCc1ccccc1 [Glycerol phenylbutyrate]
- Difference [1, 14]: −0.17
- Cholesterol-free [1, 15]: 1.054
- Complete [1, 12]: 0.8817
- Cholesterol-free media + simvastatin (0.04 μM) [2, 16]: 1.737
- Complete Media [2, 17]: 1.34
- Difference [2, 13]: −0.40

SMILES: OCC(O)CO [Glycerol]
- Cholesterol-free [1, 4]: 0.984
- Complete [1, 5]: 1.096
- Difference [1, 19]: 0.11
- Cholesterol-free media + simvastatin (0.04 μM) [2, 6]: 1.066
- Complete Media [2, 7]: 1.039
- Difference [2, 8]: −0.03

SMILES: NCC(=O)O [Glycine]
- Difference [1, 21]: −0.56
- Cholesterol-free [1, 25]: 1.569
- Complete [1, 22]: 1.011
- Cholesterol-free media + simvastatin (0.04 μM) [2, 16]: 1.249
- Complete Media [2, 17]: 0.983
- Difference [2, 13]: −0.27

SMILES: C[N+]1(C)CCC(OC(=O)C(O)(c2ccccc2)C2CCCC2)C1 (centres unmarked) [Glycopyrrolate]
- Difference [1, 3]: 0.02
- Cholesterol-free [1, 4]: 0.8111
- Complete [1, 5]: 0.8296
- Cholesterol-free media + simvastatin (0.04 μM) [2, 11]: 2.314
- Difference [2, 8]: −1.08

SMILES: CC1(C)[C@@H](O[C@H]2O[C@H](C(=O)O)[C@@H](O)[C@H](O)[C@H]2O[C@@H]2O[C@H](C(=O)O)[C@@H](O)[C@H](O)[C@H]2O)CC[C@]2(C)[C@H]3C(=O)C=C4[C@@H]5C[C@@](C)(C(=O)O)CC[C@]5(C)CC[C@@]4(C)[C@]3(C)CC[C@@H]12 [Glycyrrhizic acid]
- Difference [1, 14]: −0.08
- Cholesterol-free [1, 15]: 1.146
- Complete [1, 12]: 1.061
- Cholesterol-free media + simvastatin (0.04 μM) [2, 11]: 1.042
- Complete Media [2, 12]: 0.907
- Difference [2, 13]: −0.13

SMILES: CN1C2CCCC1CC(NC(=O)c1nn(C)c3ccccc13)C2 (centres unmarked) [Granisetron (Hydrochloride)]
- Difference [1, 3]: −0.26
- Cholesterol-free [1, 9]: 1.123
- Complete ([1]; NCI-H292 cells, complete media): 0.8639
- Cholesterol-free media + simvastatin (0.04 μM) [2, 6]: 0.8994
- Complete Media [2, 7]: 0.8536
- Difference [2, 8]: −0.05

SMILES: C=C[C@@H]1C[C@]1(NC(=O)[C@@H]1C[C@@H]2CN1C(=O)[C@H](C(C)(C)C)NC(=O)O[C@@H]1C[C@H]1CCCCCc1nc3ccc(OC)cc3nc1O2)C(=O)[N-]S(=O)(=O)C1CC1.[K+] [Grazoprevir potassium salt]
- Difference [1, 26]: −0.06
- Cholesterol-free [1, 4]: 1.089
- Complete [1, 5]: 1.03
- Cholesterol-free media + simvastatin (0.04 μM) [2, 11]: 1.46
- Complete Media [2, 12]: 1.827
- Difference [2, 18]: 0.37

SMILES: C=C[C@@H]1C[C@]1(NC(=O)[C@@H]1C[C@@H]2CN1C(=O)[C@H](C(C)(C)C)NC(=O)O[C@@H]1C[C@H]1CCCCCc1nc3ccc(OC)cc3nc1O2)C(=O)NS(=O)(=O)C1CC1.O [Grazoprevir]
- Difference [1, 26]: −0.09
- Cholesterol-free [1, 15]: 1.057
- Complete [1, 12]: 0.9626
- Cholesterol-free media + simvastatin (0.04 μM) ([2]; NCI-H292 cells, cholesterol-free media with simvastatin 0.04 μM, […]): 0.9215
- Complete Media ([2]; NCI-H292 cells, complete media, […]): 0.9383
- Difference [2, 18]: 0.02

SMILES: COC1=CC(=O)C[C@@H](C)[C@]12Oc1c(Cl)c(OC)cc(OC)c1C2=O [Griseofulvin]
- Difference [1, 21]: −0.63
- Cholesterol-free [1, 25]: 1.326
- Complete [1, 22]: 0.6963
- Cholesterol-free media + simvastatin (0.04 μM) [2, 23]: 1.385
- Complete Media [2, 24]: 1.224
- Difference [2, 13]: −0.16
